Measurements: patent US20160030407A1, “Method of Treating Inflammatory Lung Disease” (priority 2010, published 2016)
Values joined by “and” are separate entries in the source; they are usually repeats but may differ in a detail not shown here. Equal entries are not always repeated.

Columns and labels:
[1] = Single i.v. dose toxicity, 14-day observation: general observations and mortality (incl. nicotine tolerability study); format: in vivo, Sprague-Dawley rats
Procedure: Body weight and food consumption was measured daily for 14 days. On day 15, urine was collected on all surviving animals. The animals were euthanized and bled via cardiac puncture, and blood was collected for analysis. Tissues were collected, weighed, evaluated for gross abnormalities, and stored in 10% neutral-buffered formalin.
The animals were weighed prior to dosing and received a single i.v. dose via the lateral tail vein of either test compound or vehicle at a volume of 5 mL/kg.
All animals were observed daily.

[2] = system: antibodies against thyroglobulin; assay: Autoimmune thyroiditis model (Example 16B): thyroglobulin antibodies; format: in vivo, CBA/J mice; settings: 0.05 mg/ml in drinking water; day 21
Procedure: In another experiment, eighteen CBA/J female mice were immunized with mouse thyroglobulin, emulsified in complete Freund's adjuvant, on day 0 and day 7. One group of mice (n=10) drank regular water. […] Mice were sacrificed 21 days after the first immunization to collect the thyroid gland and the blood. The thyroid was analyzed for the presence of infiltrating mononuclear cells. The blood was analyzed for the levels of antibodies against thyroglobulin.

[3] = system: T cells, antigen presentation; assay: Experimental Autoimmune Thyroiditis (Example 16A): lymphoid typing by flow cytometry; format: in vivo, mice; settings: p=0.0143
Procedure: (§1) Thyroiditis was induced by injection of thyroglobulin emulsified in complete Freund's adjuvant […]. On days 0 and 7, female mice received subcutaneous injection of 100 μg thyroglobulin (2 injections of 50 μg each). Control mice drank water. […] Mice were sacrificed on day 21.
Cervical lymph nodes were removed for lymphoid typing by flow cytometry. Spleen and peritoneal macrophages were removed for ex vivo stimulation.

[4] = Treatment of a patient with autism and a seizure disorder; format: in vivo, human; settings: one patient, 1.0 mg three times per day
Excerpt: A patient, who was diagnosed with autism and a seizure disorder, had brain surgery and began rehabilitation the following month.

BACE-1 = BACE-1 protein expression in SHSY cells (Western blot); format: cell-based, human; settings: 24 hours, corrected for actin
[5] = system: antibodies to PPD and thyroglobulin; assay: Experimental Autoimmune Thyroiditis (Example 16A): serum antibodies to PPD and thyroglobulin; format: in vivo, mice
Procedure: as §1
Serum from control and anatabine-treated mice was examined to determine levels of antibodies to a foreign antigen (PPD).
Levels of antibodies to thyroglobulin were examined on days 7, 14, and 21 after immunization.

autoimmune thyroiditis = assay: Experimental Autoimmune Thyroiditis (Example 16A): thyroid histopathology; format: in vivo, mice; settings: 0.05 mg/ml in drinking water (approx. 12.5 mg/kg/day); day 21; p=0.05
Procedure: as §1
Thyroid glands were removed. One lobe was fixed in formalin for histopathology. One lobe was frozen for immunohistochemistry. The extent of lymphocytic infiltration and destruction of the thyroid gland was assessed digitally. Initially, the entire thyroid lobe was examined. […] The final score was expressed as the percent of the thyroid area infiltrated by lymphocytes and damaged. The results are shown graphically in FIG. 42. […] Photomicrographs of hematoxylin- and eosin-stained thyroids from control and anatabine-treated mice are shown in FIG. 43A (control) and FIG. 43B (anatabine-treated).

[6] = Single i.v. dose toxicity: clinical chemistry; format: in vivo, Sprague-Dawley rats
Excerpt: On day 15, urine was collected on all surviving animals for urinalysis. The animals were euthanized and bled via cardiac puncture. Blood was collected for hematology, clinical chemistry, and coagulation analysis. Tissues were collected, weighed, and stored in 10% neutral-buffered formalin for possible future analysis.

[7] = 0.1 mg/kg anatabine, nicotine 0.75 mg/kg
[8] = 0.1 mg/kg, gender F, group mean
[9] = 0.1 mg/kg, gender M, group mean
[10] = 0.75 mg/kg, gender F, group mean
[11] = 0.75 mg/kg, gender M, group mean
[12] = Anatabine 0.1 mg/kg single i.v. dose, female rats, individual animals B6-B10
[13] = Anatabine 0.1 mg/kg single i.v. dose, male rats, individual animals B1-B5
[14] = Anatabine 0.1 mg/kg, M, Mean, n 5
[15] = Anatabine 0.75 mg/kg single i.v. dose, female rats, individual animals C6-C10
[16] = Anatabine 0.75 mg/kg single i.v. dose, male rats, individual animals C1-C5
[17] = Anatabine 0.75 mg/kg, F, Mean, n 5

With `CN1CCCC1c1cccnc1.O=C(O)C(O)C(O)C(=O)O` (single isomer, unassigned; (-)) [Nicotine, (−) Nicotine hydrogen tartrate, reference compound] as the compound, how does the “time until return to normal, tolerability study” value ([1]; female rats, nicotine 1.25 and 1.0 mg/kg i.v., post dose) read?
Its value is at most 20 min.

And the “observations after dosing, tolerability study” value ([1]; female rats, single i.v. nicotine 1.25 mg/kg (1) and 1.0 mg/kg (3))?
The value was “experienced severe tremors upon completion of dosing”.

And the “time until return to normal” value ([1]; rat, nicotine 0.75 mg/kg i.v., post dose)?
The value was 15 to 20 min.

What about the observations after dosing ([1]; rat, single i.v. 0.75 mg/kg nicotine) of the same compound?
The observations after dosing was “experienced tremors upon compound administration”.

And the mortality ([1]; rat, single i.v. 0.75 mg/kg nicotine (5 males, 5 females))?
The mortality was “One male and two females died post dose”.

Which results are given for `C1=CCC(c2cccnc2)NC1` (racemic) [Anatabine, 1,2,3,6-tetrahydro-[2,3′]bipyridinyl]?
levels of thyroglobulin antibodies [2]: no effect on the levels of thyroglobulin antibodies; activated T cells vs control ([3]; cervical lymph nodes): fewer activated T cells; regulatory T cells vs control ([3]; cervical lymph nodes): more regulatory T cells; regulatory T cells vs control ([3]; cervical lymph nodes, listed as anatabine): fewer T regulatory cells than control mice; ability to present antigens vs control [3]: a lower ability to present antigens; cognitive benefits [4]: improved communication and language skills and the ability to focus; frequency of seizures ([4]; over 3 weeks): decreased from one per day to approximately one per week; BACE-1 protein expression (BACE-1): reduced BACE expression; antibodies to PPD vs control ([5]; 0.05 mg/ml in drinking water): no significant difference; antibodies to thyroglobulin vs control ([5]; day 7): no significant difference; antibodies to thyroglobulin vs control ([5]; day 14, p=0.086): tended to have lower thyroglobulin antibodies; antibodies to thyroglobulin vs control ([5]; day 21): no significant difference; severity of thyroiditis (percent of thyroid area infiltrated and damaged) (autoimmune thyroiditis): less severe thyroiditis than control mice; globulins vs vehicle controls, females [6, 7]: slightly higher; total protein vs vehicle controls, females [6, 7]: somewhat higher; AST [6, 8]: 77.00 IU/L; DIR BILIRUBIN [6, 8]: 0.00 mg/dL; TOT BILIRUBIN [6, 8]: 0.00 mg/dL; AST [6, 9]: 96.00 IU/L; BUN [6, 9]: 18.00 mg/dL; DIR BILIRUBIN [6, 9]: 0.00 mg/dL; TOT BILIRUBIN [6, 9]: 0.00 mg/dL; TOT PROTEIN [6, 9]: 6.10 g/dL; DIR BILIRUBIN [6, 10]: 0.00 mg/dL; TOT BILIRUBIN [6, 10]: 0.00 mg/dL; DIR BILIRUBIN [6, 11]: 0.02 mg/dL; TOT BILIRUBIN [6, 11]: 0.02 mg/dL; ALBUMIN [6, 12]: 3.6 g/dL (3×) and 3.5 g/dL and 3.8 g/dL; ALK PHOSPHATASE [6, 12]: 140 IU/L and 220 IU/L; ALT [6, 12]: 57 IU/L and 43 IU/L and 47 IU/L and 62 IU/L and 39 IU/L; AST [6, 12]: 78 IU/L and 69 IU/L and 70 IU/L and 86 IU/L and 82 IU/L; BUN [6, 12]: 21 mg/dL (2×) and 19 mg/dL (3×); CHLORIDE [6, 12]: 99 mEq/L and 97 mEq/L; CHOLESTEROL [6, 12]: 90 mg/dL and 74 mg/dL and 65 mg/dL and 66 mg/dL and 87 mg/dL; CREATININE [6, 12]: 0.4 mg/dL (3×) and 0.5 mg/dL (2×); DIR BILIRUBIN [6, 12]: 0 mg/dL; GLOBULIN [6, 12]: 3.1 g/dL (3×) and 3 g/dL; GLUCOSE [6, 12]: 170 mg/dL and 220 mg/dL; PHOSPHORUS [6, 12]: 8.5 mg/dL (2×) and 8.2 mg/dL and 7.4 mg/dL and 7.8 mg/dL; POTASSIUM [6, 12]: 5.4 mEq/L and 6.3 mEq/L and 5.2 mEq/L and 5.5 mEq/L and 6.7 mEq/L; TOT BILIRUBIN [6, 12]: 0 mg/dL; TOT PROTEIN [6, 12]: 6.7 g/dL (2×) and 6.3 g/dL and 6.9 g/dL and 6.6 g/dL; ALBUMIN [6, 13]: 3.4 g/dL (2×) and 3.2 g/dL and 3.1 g/dL (2×); ALK PHOSPHATASE [6, 13]: 470 IU/L; ALT [6, 13]: 92 IU/L and 65 IU/L and 74 IU/L and 44 IU/L and 78 IU/L; AST [6, 13]: 97 IU/L and 99 IU/L and 93 IU/L and 85 IU/L; BUN [6, 13]: 18 mg/dL (2×) and 21 mg/dL and 14 mg/dL and 19 mg/dL; CHLORIDE [6, 13]: 98 mEq/L and 97 mEq/L (2×) and 99 mEq/L (2×); CHOLESTEROL [6, 13]: 65 mg/dL and 64 mg/dL and 75 mg/dL and 56 mg/dL and 76 mg/dL; CREATININE [6, 13]: 0.4 mg/dL (3×) and 0.3 mg/dL (2×); DIR BILIRUBIN [6, 13]: 0 mg/dL; GLOBULIN [6, 13]: 2.9 g/dL (2×) and 2.6 g/dL and 3.1 g/dL; GLUCOSE [6, 13]: 210 mg/dL; POTASSIUM [6, 13]: 5.9 mEq/L and 6.5 mEq/L and 6.6 mEq/L and 6.9 mEq/L and 6.1 mEq/L; TOT BILIRUBIN [6, 13]: 0 mg/dL; TOT PROTEIN [6, 13]: 6.3 g/dL (2×) and 5.8 g/dL and 5.9 g/dL and 6.2 g/dL; CREATININE ([6]; Anatabine 0.1 mg/kg, F, Mean, n 5): 0.44 mg/dL; CHLORIDE [6, 14]: 98.00 mEq/L; CREATININE [6, 14]: 0.36 mg/dL; POTASSIUM [6, 14]: 6.40 mEq/L; ALBUMIN [6, 15]: 3.5 g/dL (2×) and 3.6 g/dL (2×) and 3.4 g/dL; ALK PHOSPHATASE [6, 15]: 130 IU/L and 160 IU/L; ALT [6, 15]: 63 IU/L and 49 IU/L (2×) and 55 IU/L and 57 IU/L; AST [6, 15]: 95 IU/L and 69 IU/L and 76 IU/L and 54 IU/L and 72 IU/L; BUN [6, 15]: 15 mg/dL (3×) and 16 mg/dL (2×); CHLORIDE [6, 15]: 97 mEq/L (2×) and 96 mEq/L and 99 mEq/L; CHOLESTEROL [6, 15]: 66 mg/dL and 64 mg/dL and 63 mg/dL and 69 mg/dL and 87 mg/dL; CREATININE [6, 15]: 0.5 mg/dL (2×) and 0.4 mg/dL (3×); DIR BILIRUBIN [6, 15]: 0 mg/dL; GLOBULIN [6, 15]: 2.7 g/dL and 3 g/dL (2×); PHOSPHORUS [6, 15]: 9.7 mg/dL and 7.7 mg/dL and 9.6 mg/dL and 9.2 mg/dL and 7 mg/dL; POTASSIUM [6, 15]: 5.5 mEq/L and 5.9 mEq/L and 6 mEq/L and 5.7 mEq/L and 6.3 mEq/L; TOT BILIRUBIN [6, 15]: 0 mg/dL; TOT PROTEIN [6, 15]: 6.3 g/dL (2×) and 6.2 g/dL and 6.6 g/dL and 6.5 g/dL; ALBUMIN [6, 16]: 3.4 g/dL (2×) and 3.1 g/dL and 3.2 g/dL and 3.3 g/dL; ALT [6, 16]: 75 IU/L and 57 IU/L and 65 IU/L and 50 IU/L and 87 IU/L; AST [6, 16]: 66 IU/L and 97 IU/L and 90 IU/L and 92 IU/L; BUN [6, 16]: 15 mg/dL and 18 mg/dL and 12 mg/dL and 17 mg/dL and 21 mg/dL; CHLORIDE [6, 16]: 98 mEq/L and 99 mEq/L (2×) and 100 mEq/L and 97 mEq/L; CHOLESTEROL [6, 16]: 69 mg/dL (2×) and 60 mg/dL and 54 mg/dL and 62 mg/dL; CREATININE [6, 16]: 0.4 mg/dL (3×) and 0.3 mg/dL (2×); DIR BILIRUBIN [6, 16]: 0 mg/dL (4×) and 0.1 mg/dL; GLOBULIN [6, 16]: 2.6 g/dL and 2.7 g/dL and 2.9 g/dL; GLUCOSE [6, 16]: 160 mg/dL; PHOSPHORUS [6, 16]: 11 mg/dL and 10 mg/dL; POTASSIUM [6, 16]: 6.3 mEq/L (2×) and 5.4 mEq/L and 6 mEq/L and 6.6 mEq/L; SODIUM [6, 16]: 150 mEq/L; TOT BILIRUBIN [6, 16]: 0 mg/dL (4×) and 0.1 mg/dL; TOT PROTEIN [6, 16]: 6.2 g/dL and 5.7 g/dL and 5.9 g/dL and 6.1 g/dL and 6.3 g/dL; CHLORIDE [6, 17]: 98.00 mEq/L; CREATININE [6, 17]: 0.44 mg/dL; CREATININE ([6]; Anatabine 0.75 mg/kg, M, Mean, n 5): 0.36 mg/dL; globulins vs vehicle controls, males ([6]; all anatabine dose levels, nicotine 0.75 mg/kg): marginally higher; total protein vs vehicle controls, males ([6]; all anatabine treatment groups, nicotine 0.75 mg/kg): slightly increased; albumin levels vs control ([6]; males 0.75 and […], females 0.1 and 0.75 mg/kg anatabine): slight increases in albumin levels
